These results are taken from ChEMBL document CHEMBL5729517, “BTK inhibitor compounds” (2023).

Assay [1] has as its target Tyrosine-protein kinase BTK (Homo sapiens, UniProt Q06187). Kind of assay: BTK and EGFR in Vitro Assay: The BTK and EGFR biochemical assays utilize LANTHASCREEN® Eu Kinase Binding Assays from Thermo Fisher Scientific, measuring the binding of the kinase with a […] tracer. The assay buffer consists of 50 mM HEPES pH 7.5, 0.01% BRU™-35, 10 mM MgCl2, 1 mM EGTA, and 1 mM DTT. The test compounds are diluted and added to the assay plate with a Labcyte ECHO® 555 liquid handler. The compounds are tested in 10 point dose response curves (100 μM-0.005 μM) with a maximum DMSO concentration of 1%. The assays are performed in 20 μL in low-volume 384-well white proxiplates. For the BTK assay, the concentration of full-length His-labeled BTK in the assay is 5 nM, the Eu-anti-His antibody is 2 nM, and the kinase tracer 236 is 60 nM. For the EGFR assay, the concentration of truncated (amino acids 668-1210) GST-labeled EGFR is 5 nM, the Eu-anti-GST antibody is 2 nM, and the kinase tracer 199 is 10 nM. The components of the assay (compound, enzyme/antibody, tracer) are assembled and incubated for 30 min prior to being read on a Perkin-Elmer EnVision with excitation at 340 nm, tracer emission at 665 nm, and antibody emission at 615 nm. The signal ratio is converted to percent inhibition using the following equation: % Inhibition=100−[(Test Compound−Median Minimum)/(Median Maximum−Median Minimum)×100].

Assay [2] deals with Epidermal growth factor receptor (Homo sapiens, UniProt P00533). Kind of assay: BTK and EGFR in Vitro Assay: The BTK and EGFR biochemical assays utilize LANTHASCREEN® Eu Kinase Binding Assays from Thermo Fisher Scientific, measuring the binding of the kinase with a fluorinated tracer. The assay buffer consists of 50 mM HEPES pH 7.5, 0.01% BRU™-35, 10 mM MgCl2, 1 mM EGTA, and 1 mM DTT. […] The compounds are tested in 10 point dose response curves (100 μM-0.005 μM) with a maximum DMSO concentration of 1%. The assays are performed in 20 μL in low-volume 384-well white proxiplates. […] The signal ratio is converted to percent inhibition using the following equation: % Inhibition=100−[(Test Compound−Median Minimum)/(Median Maximum−Median Minimum)×100].
Epidermal growth factor receptor, sequence (P00533 whole entry): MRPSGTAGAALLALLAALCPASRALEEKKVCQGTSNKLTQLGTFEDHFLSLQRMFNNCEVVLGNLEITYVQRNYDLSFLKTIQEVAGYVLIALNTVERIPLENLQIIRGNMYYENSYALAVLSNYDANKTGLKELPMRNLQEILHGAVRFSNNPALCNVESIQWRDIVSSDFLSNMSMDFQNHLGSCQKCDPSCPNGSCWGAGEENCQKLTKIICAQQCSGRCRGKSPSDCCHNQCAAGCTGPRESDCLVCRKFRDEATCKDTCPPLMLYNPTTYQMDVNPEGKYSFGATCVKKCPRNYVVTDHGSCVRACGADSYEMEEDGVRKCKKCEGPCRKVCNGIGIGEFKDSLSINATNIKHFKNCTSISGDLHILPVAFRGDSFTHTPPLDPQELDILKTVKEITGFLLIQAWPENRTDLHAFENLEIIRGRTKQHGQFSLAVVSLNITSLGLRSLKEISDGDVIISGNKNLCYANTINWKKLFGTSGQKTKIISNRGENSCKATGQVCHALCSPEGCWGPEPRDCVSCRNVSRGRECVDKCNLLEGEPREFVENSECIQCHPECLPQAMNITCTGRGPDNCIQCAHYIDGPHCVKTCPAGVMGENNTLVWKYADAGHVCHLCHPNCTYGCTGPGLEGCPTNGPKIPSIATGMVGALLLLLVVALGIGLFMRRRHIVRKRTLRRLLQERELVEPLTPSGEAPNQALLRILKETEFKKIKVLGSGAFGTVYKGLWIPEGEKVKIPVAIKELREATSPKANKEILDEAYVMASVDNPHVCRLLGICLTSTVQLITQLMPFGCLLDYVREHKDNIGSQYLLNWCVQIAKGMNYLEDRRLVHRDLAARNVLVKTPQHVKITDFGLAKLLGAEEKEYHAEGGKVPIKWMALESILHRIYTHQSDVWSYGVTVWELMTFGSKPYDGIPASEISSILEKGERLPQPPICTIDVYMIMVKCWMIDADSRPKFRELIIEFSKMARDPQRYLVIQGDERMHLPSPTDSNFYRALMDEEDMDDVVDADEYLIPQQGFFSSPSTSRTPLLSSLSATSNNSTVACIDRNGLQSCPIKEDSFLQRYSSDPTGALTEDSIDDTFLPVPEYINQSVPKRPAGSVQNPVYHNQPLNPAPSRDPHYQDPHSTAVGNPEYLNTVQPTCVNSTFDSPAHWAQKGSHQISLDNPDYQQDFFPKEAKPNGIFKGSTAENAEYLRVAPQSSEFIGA

Tyrosine-protein kinase BTK, sequence (Q06187 whole entry, the tested form may be a part): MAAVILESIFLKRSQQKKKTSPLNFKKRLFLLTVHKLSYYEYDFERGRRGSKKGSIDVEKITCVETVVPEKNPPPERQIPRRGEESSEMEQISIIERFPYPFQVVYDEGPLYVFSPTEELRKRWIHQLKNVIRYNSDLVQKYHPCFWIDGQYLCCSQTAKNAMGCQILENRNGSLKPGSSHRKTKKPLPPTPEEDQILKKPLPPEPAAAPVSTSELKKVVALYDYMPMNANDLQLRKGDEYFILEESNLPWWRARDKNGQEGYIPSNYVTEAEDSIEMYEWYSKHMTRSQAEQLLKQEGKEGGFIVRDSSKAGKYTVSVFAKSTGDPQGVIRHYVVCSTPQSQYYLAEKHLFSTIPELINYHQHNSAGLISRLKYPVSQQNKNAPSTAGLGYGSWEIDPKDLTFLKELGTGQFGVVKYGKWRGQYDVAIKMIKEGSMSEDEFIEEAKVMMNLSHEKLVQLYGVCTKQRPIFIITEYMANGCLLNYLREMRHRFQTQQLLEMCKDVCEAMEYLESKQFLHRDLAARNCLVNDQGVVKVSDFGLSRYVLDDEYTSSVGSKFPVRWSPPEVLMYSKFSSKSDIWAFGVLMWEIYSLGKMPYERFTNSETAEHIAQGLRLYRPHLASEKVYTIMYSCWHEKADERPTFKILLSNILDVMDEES

With `C=CC(=O)N1CC[C@H](Nc2cncc(-c3cnc(Nc4cccc(OC(F)F)c4)nc3)c2)C1`, the half-inhibitory concentration (IC50) in assay [1] was found to be 0.00608 µM; in assay [2] it was 8.65 µM.
In the same order, the values of `C=CC(=O)N1CC[C@H](Nc2cncc(-c3cnc(Nc4cccc(C)n4)nc3)c2)C1` are 0.0329 µM and 16.1 µM.
As for `C=CC(=O)N1CC[C@H](Nc2cncc(-c3cnc(Oc4cccc(OC(F)F)c4)nc3)c2)C1`, the IC50 was 0.0555 µM in assay [1] and 28.5 µM in assay [2].
The matching figures for `C=CC(=O)N1CC(Nc2cncc(-c3cnc(Oc4cccc(C#N)c4)nc3)c2)C1`: 0.0758 µM and 6.52 µM.
